One data set has as its system JVM2 (MCL) cell line. The data set can be described thus: MTT antiproliferation combination assay, Chou-Talalay Combination Index, JVM2. In kind it is cell-based. Conditions: HDAC inhibitor in combination with Compound 1, 72 hours. How it is done:
(§1) Cell lines from different haematological malignancies were exposed to increasing doses of Compound 1, to increasing doses of HDAC inhibitor, and to increasing doses of the combination of Compound 1 and HDAC inhibitor. Compound 1 and Vorinostat were used at a maximum concentration of 10 μM, following an eight fold dose response design based on 1:3 compound dilutions plus an untreated control. Belinostat was used at a maximum concentration of 10 μM, following an eight fold dose response design based on 1:4 compound dilutions plus an untreated control.
(§2) Cells were incubated for 72 hours at 37° C. and 5% CO2. The antiproliferative effect of single and combination treatments were determined by adding 20 μL MTT [3-(4,5-dimethylthiazolyl-2)-2,5-diphenyltetrazoliumbromide] reagent (Sigma Aldrich, Buchs, Switzerland) to each well and the plates were incubated at 37° C. for 4 hours, followed by adding 50 μL of sodium dodecyl sulfate (SDS) (250 µM SDS, 0.21% fuming HCl) lysis buffer. The lysed cells were kept overnight, and then the absorbance was read at 570 nm using the Cytation 3 instrument (BioTek, Winoosku, VT, USA). The effect of the combinations was determined according to the Chou-Talalay Combination Index (CI) (Chou 2008, Chou 2010) and calculated with the Synergy R package (Lee 2007). […]
In general terms: Tetrazolium dyes change colour on reduction, which living cells bring about.

For a further data set, the system named is MEC1 (CLL) cell line. The data set can be described thus: MTT antiproliferation combination assay, Chou-Talalay Combination Index, MEC1. Format: cell-based. Conditions: HDAC inhibitor in combination with Compound 1, 72 hours. How it is done: as §1, §2
In the next data set the test system is Farage (DLBCL) cell line. The data set can be described thus: MTT antiproliferation combination assay, Chou-Talalay Combination Index, Farage. In kind it is cell-based. The settings on record: HDAC inhibitor in combination with Compound 1, 72 hours. Here is the method:
as §1, §2

For data set [1] the following is noted: clinical use of Vorinostat; cited from earlier work.
Another data set has as its system DNMT. The settings on record: more than that of azacytidine; cited from earlier work.
Data set [2] relates to A20 (murine B-cell lymphoma) cell line. Kind of data set: MTT antiproliferation combination assay, Chou-Talalay Combination Index, A20. In kind it is cell-based. The settings on record: HDAC inhibitor in combination with Compound 1, 72 hours. Here is the method: as §1, §2
Another data set relates to TMD8 (DLBCL) cell line. Kind of data set: MTT antiproliferation combination assay, Chou-Talalay Combination Index, TMD8. In kind it is cell-based. Conditions: HDAC inhibitor in combination with Compound 1, 72 hours. Here is the method: as §1, §2

For the molecule `O=C(CCCCCCC(=O)Nc1ccccc1)NO` [Vorinostat, N-Hydroxy-N′-phenyloctanediamide], the “Cl value (median)” value in the data set on JVM2 (MCL) cell line is on record as 0.71; in the data set with MEC1 (CLL) cell line, 0.83; in the data set on Farage (DLBCL) cell line, 0.69. Also, the “pulmonary embolism (thromboembolic, most common life-threatening event)” value in data set [1] is listed as 4%.
Regarding `Nc1ncn([C@H]2C[C@H](O)[C@@H](CO)O2)c(=O)n1` [Decitabine, 5-aza-2′-deoxycytidine], the “inhibitory activity of DNMT relative to azacytidine” value in the data set with DNMT is 30 times.
As to `O=C(/C=C/c1cccc(S(=O)(=O)Nc2ccccc2)c1)NO` [Belinostat, (2E)-N-Hydroxy-3-[3-(phenylsulfamoyl)phenyl]prop-2-enamide], the “Cl value (median)” value is listed as 0.62 in the data set on JVM2 (MCL) cell line; 0.87 in data set [2]; 0.45 with MEC1 (CLL) cell line; 0.51 with Farage (DLBCL) cell line; 0.87 in the data set with TMD8 (DLBCL) cell line.
